Source: patent US9283222B2 (priority 2006, dated 2016)
pKi: −log10 of the molar value.

Biological target: Recombinant Human Poly(ADP-Ribose) Polymerase (PARP), PARP-1 (Homo sapiens (Human), UniProt P09874)
Settings: read-out: PARP-1 (Ki); Table 1; text calls the values EC50s

Chain of Recombinant Human Poly(ADP-Ribose) Polymerase (PARP), PARP-1 (P09874 whole entry): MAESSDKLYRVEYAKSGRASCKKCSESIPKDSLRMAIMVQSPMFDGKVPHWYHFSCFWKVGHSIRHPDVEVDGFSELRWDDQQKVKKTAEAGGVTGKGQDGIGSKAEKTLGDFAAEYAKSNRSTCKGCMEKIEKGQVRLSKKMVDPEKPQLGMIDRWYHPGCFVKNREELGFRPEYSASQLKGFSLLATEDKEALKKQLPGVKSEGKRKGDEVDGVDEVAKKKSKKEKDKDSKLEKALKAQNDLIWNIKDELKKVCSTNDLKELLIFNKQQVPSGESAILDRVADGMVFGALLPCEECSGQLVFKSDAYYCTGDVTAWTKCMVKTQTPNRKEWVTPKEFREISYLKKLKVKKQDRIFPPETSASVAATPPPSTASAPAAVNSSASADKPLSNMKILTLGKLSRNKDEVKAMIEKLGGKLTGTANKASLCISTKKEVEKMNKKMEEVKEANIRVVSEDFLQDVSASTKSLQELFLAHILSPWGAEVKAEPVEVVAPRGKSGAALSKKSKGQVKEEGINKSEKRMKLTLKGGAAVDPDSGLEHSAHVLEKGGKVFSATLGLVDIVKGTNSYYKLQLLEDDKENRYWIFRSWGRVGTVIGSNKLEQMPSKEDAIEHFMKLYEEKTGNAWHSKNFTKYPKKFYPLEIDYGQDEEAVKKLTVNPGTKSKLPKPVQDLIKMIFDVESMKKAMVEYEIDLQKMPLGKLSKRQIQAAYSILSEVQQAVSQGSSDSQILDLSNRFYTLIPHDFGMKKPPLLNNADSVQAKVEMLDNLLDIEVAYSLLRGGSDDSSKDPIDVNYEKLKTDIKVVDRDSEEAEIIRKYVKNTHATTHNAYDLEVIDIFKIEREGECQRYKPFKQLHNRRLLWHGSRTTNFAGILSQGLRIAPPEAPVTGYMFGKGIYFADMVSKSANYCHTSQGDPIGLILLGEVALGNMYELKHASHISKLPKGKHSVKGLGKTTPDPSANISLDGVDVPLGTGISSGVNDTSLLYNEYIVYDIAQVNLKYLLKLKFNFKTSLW

Row | pKi | SMILES
1 | 7.09 | O=C(Cc1cccnc1)Nc1cccc(Cc2n[nH]c(=O)c3c2CCCC3)c1 [Example 216, N-(3-((4-oxo-3,4,5,6,7,8-hexahydrophthalazin-1-yl)methyl)phenyl)-2-pyridin-3-ylacetamide]
2 | 8.30 | Cc1cnc(C(=O)Nc2cccc(Cc3n[nH]c(=O)c4c3CCCC4)c2)cn1 [Example 217, 5-methyl-N-(3-((4-oxo-3,4,5,6,7,8-hexahydrophthalazin-1-yl)methyl)phenyl)pyrazine-2-carboxamide]
3 | 7.07 | O=C(Nc1cccc(Cc2n[nH]c(=O)c3c2CCCC3)c1)c1c[nH]c2ccccc12 [Example 218, N-(3-((4-oxo-3,4,5,6,7,8-hexahydrophthalazin-1-yl)methyl)phenyl)-1H-indole-3-carboxamide]
4 | 7.85 | O=C(Nc1cccc(Cc2n[nH]c(=O)c3c2CCCC3)c1)C1=Cc2cc(Cl)ccc2OC1 [Example 220, 6-chloro-N-(3-((4-oxo-3,4,5,6,7,8-hexahydrophthalazin-1-yl)methyl)phenyl)-2H-chromene-3-carboxamide]
5 | 5.81 | CN(C)CCC(=O)Nc1cccc(Cc2n[nH]c(=O)c3c2CCCC3)c1 [Example 221]
6 | 7.39 | Cc1ccc(C(=O)Nc2cccc(Cc3n[nH]c(=O)c4c3CCCC4)c2)c(O)c1 [Example 225, 2-hydroxy-4-methyl-N-(3-((4-oxo-3,4,5,6,7,8-hexahydrophthalazin-1-yl)methyl)phenyl)benzamide]
7 | 7.40 | CC(=O)c1ccc(C(=O)Nc2cccc(Cc3n[nH]c(=O)c4c3CCCC4)c2)cc1 [Example 226, 4-acetyl-N-(3-((4-oxo-3,4,5,6,7,8-hexahydrophthalazin-1-yl)methyl)phenyl)benzamide]
8 | 7.22 | COc1cc(C(=O)Nc2cccc(Cc3n[nH]c(=O)c4c3CCCC4)c2)ccc1C [Example 227, 3-methoxy-4-methyl-N-(3-((4-oxo-3,4,5,6,7,8-hexahydrophthalazin-1-yl)methyl)phenyl)benzamide]
9 | 7.01 | CCOc1ccc(C(=O)Nc2cccc(Cc3n[nH]c(=O)c4c3CCCC4)c2)cc1 [Example 228, 4-ethoxy-N-(3-((4-oxo-3,4,5,6,7,8-hexahydrophthalazin-1-yl)methyl)phenyl)benzamide]
10 | 7.31 | COc1ccc(C(=O)Nc2cccc(Cc3n[nH]c(=O)c4c3CCCC4)c2)cc1F [Example 229, 3-fluoro-4-methoxy-N-(3-((4-oxo-3,4,5,6,7,8-hexahydrophthalazin-1-yl)methyl)phenyl)benzamide]
11 | 7.02 | O=C(Nc1cccc(Cc2n[nH]c(=O)c3c2CCCC3)c1)c1cccc2ccccc12 [Example 230, N-(3-((4-oxo-3,4,5,6,7,8-hexahydrophthalazin-1-yl)methyl)phenyl)-1-naphthamide]
12 | 6.96 | O=C(Nc1cccc(Cc2n[nH]c(=O)c3c2CCCC3)c1)c1ccc2ccccc2c1 [Example 231, N-(3-((4-oxo-3,4,5,6,7,8-hexahydrophthalazin-1-yl)methyl)phenyl)-2-naphthamide]
13 | 6.80 | CC(C)(C)c1ccc(C(=O)Nc2cccc(Cc3n[nH]c(=O)c4c3CCCC4)c2)cc1 [Example 233, 4-tert-butyl-N-(3-((4-oxo-3,4,5,6,7,8-hexahydrophthalazin-1-yl)methyl)phenyl)benzamide]
14 | 7.24 | CC(=O)Nc1ccc(C(=O)Nc2cccc(Cc3n[nH]c(=O)c4c3CCCC4)c2)cc1 [Example 234, 4-(acetylamino)-N-(3-((4-oxo-3,4,5,6,7,8-hexahydrophthalazin-1-yl)methyl)phenyl)benzamide]
15 | 6.70 | CCCOc1ccc(C(=O)Nc2cccc(Cc3n[nH]c(=O)c4c3CCCC4)c2)cc1 [Example 235, N-(3-((4-oxo-3,4,5,6,7,8-hexahydrophthalazin-1-yl)methyl)phenyl)-4-propoxybenzamide]
16 | 8.40 | O=C(Nc1cccc(Cc2n[nH]c(=O)c3c2CCCC3)c1)c1ccc2ccccc2c1O [Example 236, 1-hydroxy-N-(3-((4-oxo-3,4,5,6,7,8-hexahydrophthalazin-1-yl)methyl)phenyl)-2-naphthamide]
17 | 7.17 | CSc1ccc(Cl)c(C(=O)Nc2cccc(Cc3n[nH]c(=O)c4c3CCCC4)c2)c1 [Example 237, 2-chloro-5-(methylthio)-N-(3-((4-oxo-3,4,5,6,7,8-hexahydrophthalazin-1-yl)methyl)phenyl)benzamide]
18 | 7.33 | CCOc1ccc(C(=O)Nc2cccc(Cc3n[nH]c(=O)c4c3CCCC4)c2)cc1OCC [Example 238, 3,4-diethoxy-N-(3-((4-oxo-3,4,5,6,7,8-hexahydrophthalazin-1-yl)methyl)phenyl)benzamide]
19 | 6.26 | O=C(Nc1cccc(Cc2n[nH]c(=O)c3c2CCCC3)c1)c1ccccc1Cc1ccccc1 [Example 239, 2-benzyl-N-(3-((4-oxo-3,4,5,6,7,8-hexahydrophthalazin-1-yl)methyl)phenyl)benzamide]
20 | 6.55 | O=C(Nc1cccc(Cc2n[nH]c(=O)c3c2CCCC3)c1)c1ccccc1Nc1ccccc1 [Example 240, 2-anilino-N-(3-((4-oxo-3,4,5,6,7,8-hexahydrophthalazin-1-yl)methyl)phenyl)benzamide]

Row | pKi | SMILES
21 | 5.84 | O=C(Nc1cccc(Cc2n[nH]c(=O)c3c2CCCC3)c1)c1ccccc1C(=O)c1ccccc1 [Example 241, 2-benzoyl-N-(3-((4-oxo-3,4,5,6,7,8-hexahydrophthalazin-1-yl)methyl)phenyl)benzamide]
22 | 6.21 | O=C(Nc1cccc(Cc2n[nH]c(=O)c3c2CCCC3)c1)c1ccccc1CCc1ccccc1 [Example 242, N-(3-((4-oxo-3,4,5,6,7,8-hexahydrophthalazin-1-yl)methyl)phenyl)-2-(2-phenylethyl)benzamide]
23 | 7.04 | O=C(Nc1cccc(Cc2n[nH]c(=O)c3c2CCCC3)c1)c1cc(Br)ccc1Cl [Example 243, 5-bromo-2-chloro-N-(3-((4-oxo-3,4,5,6,7,8-hexahydrophthalazin-1-yl)methyl)phenyl)benzamide]
24 | 5.63 | Cc1ccc(C(=O)c2ccccc2C(=O)Nc2cccc(Cc3n[nH]c(=O)c4c3CCCC4)c2)cc1 [Example 244, 2-(4-methylbenzoyl)-N-(3-((4-oxo-3,4,5,6,7,8-hexahydrophthalazin-1-yl)methyl)phenyl)benzamide]
25 | 6.02 | O=C(Nc1cccc(Cc2n[nH]c(=O)c3c2CCCC3)c1)c1ccccc1I [Example 245, 2-iodo-N-(3-((4-oxo-3,4,5,6,7,8-hexahydrophthalazin-1-yl)methyl)phenyl)benzamide]
26 | 7.28 | O=C(Nc1cccc(Cc2n[nH]c(=O)c3c2CCCC3)c1)c1cccc(I)c1 [Example 246, 3-iodo-N-(3-((4-oxo-3,4,5,6,7,8-hexahydrophthalazin-1-yl)methyl)phenyl)benzamide]
27 | 7.32 | O=C(Nc1cccc(Cc2n[nH]c(=O)c3c2CCCC3)c1)c1ccc(I)cc1 [Example 247, 4-iodo-N-(3-((4-oxo-3,4,5,6,7,8-hexahydrophthalazin-1-yl)methyl)phenyl)benzamide]
28 | 8.70 | CC(=O)Nc1cccc(-c2cc(Cc3n[nH]c(=O)c4c3CCCC4)ccc2F)c1 [Example 248]
29 | 7.07 | CS(=O)(=O)c1cccc(-c2cc(Cc3n[nH]c(=O)c4c3CCCC4)ccc2F)c1 [Example 249, 4-((6-fluoro-3′-(methylsulfonyl)-1,1′-biphenyl-3-yl)methyl)-5,6,7,8-tetrahydrophthalazin-1(2H)-one]
30 | 6.68 | O=C(c1cccc(-c2cc(Cc3n[nH]c(=O)c4c3CCCC4)ccc2F)c1)N1CCCC1 [Example 250, 4-((6-fluoro-3′-(pyrrolidin-1-ylcarbonyl)-1,1′-biphenyl-3-yl)methyl)-5,6,7,8-tetrahydrophthalazin-1(2H)-one]
31 | 6.35 | O=C(c1ccc(-c2cc(Cc3n[nH]c(=O)c4c3CCCC4)ccc2F)cc1)N1CCCC1 [Example 251, 4-((6-fluoro-4′-(pyrrolidin-1-ylcarbonyl)-1,1′-biphenyl-3-yl)methyl)-5,6,7,8-tetrahydrophthalazin-1(2H)-one]
32 | 7.72 | NC(=O)c1cccc(-c2cc(Cc3n[nH]c(=O)c4c3CCCC4)ccc2F)c1 [Example 252, 2′-fluoro-5′-((4-oxo-3,4,5,6,7,8-hexahydrophthalazin-1-yl)methyl)-1,1′-biphenyl-3-carboxamide]
33 | 6.64 | CN(C)C(=O)c1ccc(-c2cc(Cc3n[nH]c(=O)c4c3CCCC4)ccc2F)cc1 [Example 253, 2′-fluoro-N,N-dimethyl-5′-((4-oxo-3,4,5,6,7,8-hexahydrophthalazin-1-yl)methyl)-1,1′-biphenyl-4-carboxamide]
34 | 6.47 | O=c1[nH]nc(CCc2ccccc2)c2c1CCCC2 [Example 255, 4-(2-phenylethyl)-5,6,7,8-tetrahydrophthalazin-1(2H)-one]
35 | 5.75 | CC(C)(C)OC(=O)N1CCN(C(=O)OCc2ccccc2)CC1Cc1n[nH]c(=O)c2c1CCCC2 (centres unmarked) [Example 258, 4-benzyl 1-tert-butyl 2-((4-oxo-3,4,5,6,7,8-hexahydrophthalazin-1-yl)methyl)piperazine-1,4-dicarboxylate]
36 | 6.61 | Nc1cccc(CCc2n[nH]c(=O)c3c2CCCC3)c1 [Example 260, 4-(2-(3-aminophenyl)ethyl)-5,6,7,8-tetrahydrophthalazin-1(2H)-one]
37 | 6.25 | O=c1[nH]nc(CC2CNCCN2)c2c1CCCC2 (centres unmarked) [Example 261, 4-(piperazin-2-ylmethyl)-5,6,7,8-tetrahydrophthalazin-1(2H)-one]
38 | 6.52 | O=C1CCCN1c1cccc(CCc2n[nH]c(=O)c3c2CCCC3)c1 [Example 262, 4-(2-(3-(2-oxopyrrolidin-1-yl)phenyl)ethyl)-5,6,7,8-tetrahydrophthalazin-1(2H)-one]
39 | 6.84 | O=C(COc1ccccc1)Nc1cccc(CCc2n[nH]c(=O)c3c2CCCC3)c1 [Example 263, N-(3-(2-(4-oxo-3,4,5,6,7,8-hexahydrophthalazin-1-yl)ethyl)phenyl)-2-phenoxyacetamide]
40 | 6.18 | O=C(c1cccc(-c2cc(CCc3n[nH]c(=O)c4c3CCCC4)ccc2F)c1)N1CCOCC1 [Example 264, 4-(2-(6-fluoro-3′-(morpholin-4-ylcarbonyl)-1,1′-biphenyl-3-yl)ethyl)-5,6,7,8-tetrahydrophthalazin-1(2H)-one]

Row | SMILES | pKi
41 | Cc1c(C(=O)Nc2cccc(Cc3n[nH]c(=O)c4c3CCCC4)c2)cnn1-c1ccccc1 [Example 219] | 8.05
